The subject of this assay is Murine colon carcinoma CT26. The assay can be described thus: Antitumour efficacy after intratumoral treatment of CT26 tumours. The class given is in vivo, Balb/cJRj mice.

Protocol: Healthy Balb/cJRj mice were injected with 100 μL of Murine colon carcinoma CT26 cancer cells (3×105) in RPMI media subcutaneously on the right flank. Mice bearing tumors with volumes between 50 and 200 mm^3 were randomized and rearranged into new cages by blocking for initial tumor volume, and each cage received one of the four treatments described in Table 2 administered intratumorally (50 μL). A total of 3 injections, separated by 7 days each, were made for each treatment.
83 days after the first tumor inoculation, the surviving mice were re-challenged by a second inoculation of CT26 cancers cells (same dose) on the left flank of the mice along with a control group getting their first inoculation. The mice were monitored for weight and their tumors were measured using an electronic caliper twice a week, and fluorescence imaging was performed at regular intervals for all formulations containing Cy7 moieties. […] Humane endpoints included general signs of misthriving mice, significant weight loss (15% of initial weight or 10% overnight weight loss), or presence of tumor wounds larger than 8 mm.

Regarding `CCOCc1nc2c(N)nc3ccccc3c2n1CCCN` [TLR7/8a, 4-Amino-2-(ethoxymethyl)-1H-imidazo[4,5-c]quinoline-1-propanamine], the “antitumour activity / improvement versus control” value (intratumoral treatment) is “potential minor improvement in tumour treatment compared to the control”. For the same compound, under “mouse, in vivo”, the “averaged slope coefficient for the tumour growth plots (tumour growth rate)” value is on record as “positive”. Further, the “mice recovered from the tumour” value (six mice per group, 3 intratumoral injections 7 days apart) was “two out of six mice recovered”.
